{"source": "patent US6461863B1", "about": "“Modifying insect cell gylcosylation pathways with baculovirus expression vectors” (University of Wyoming, priority 1996, dated 2002)", "key": {"Sf9 α1,2-mannosidase": {"molecular_target": "T1, Sf9 α1,2-mannosidase (Spodoptera frugiperda, UniProt O18498)", "T1 construct": "This screening procedure identified a full-length α1,2-mannosidase cDNA clone which contains an ORF; made in house; host or cells: Sf9 cells infected with recombinant baculovirus (pVL1393 transfer plasmid, polyhedrin promoter, BacPAK6 DNA); Triton X-100 cell lysate, not purified", "T1 sequence (O18498 1-670)": "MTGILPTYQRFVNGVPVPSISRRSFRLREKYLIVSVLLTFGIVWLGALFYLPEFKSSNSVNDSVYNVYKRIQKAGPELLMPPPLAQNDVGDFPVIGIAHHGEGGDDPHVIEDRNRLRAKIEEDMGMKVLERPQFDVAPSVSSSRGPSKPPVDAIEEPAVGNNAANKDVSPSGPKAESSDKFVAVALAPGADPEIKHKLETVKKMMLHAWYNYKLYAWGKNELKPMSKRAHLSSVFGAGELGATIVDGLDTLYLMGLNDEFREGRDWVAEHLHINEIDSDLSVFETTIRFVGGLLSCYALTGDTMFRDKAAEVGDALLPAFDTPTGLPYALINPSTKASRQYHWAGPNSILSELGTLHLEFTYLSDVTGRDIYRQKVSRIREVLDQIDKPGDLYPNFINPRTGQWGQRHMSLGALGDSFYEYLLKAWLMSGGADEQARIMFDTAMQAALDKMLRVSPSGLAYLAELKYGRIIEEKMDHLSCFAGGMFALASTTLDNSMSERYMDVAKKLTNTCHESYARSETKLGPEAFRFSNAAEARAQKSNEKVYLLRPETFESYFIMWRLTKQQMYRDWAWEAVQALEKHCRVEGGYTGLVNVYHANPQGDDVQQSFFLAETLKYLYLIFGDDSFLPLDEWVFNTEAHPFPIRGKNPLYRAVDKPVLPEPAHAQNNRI", "experiment": "α1,2-mannosidase activity assay, release of [3H]mannose from [3H]Man9GlcNAc by lysates of recombinant baculovirus-infected Sf9 cells", "type": "biochemical", "settings": "cell lysates at 48 hours postinfection (FIG. 15B); for α-mannosidase activity in recombinant baculovirus-infected cells, inhibition by dMNJ: 500 μM dMNJ", "method": "Sf9 cell lysates were used for α1,2-mannosidase activity assays with [3H]Man9GlcNAc as described previously (Herscovics and Jelinek-Kelly, 1987) with some modifications. The cells were seeded into 25 cm tissue culture flasks (Corning Glass Works, Corning, N.Y.) at a density of 3 million cells per flask and infected at a multiplicity of infection of 10 plaque forming units per cell with either a recombinant baculovirus encoding the Sf9 α1,2-mannosidase cDNA under the control of the polyhedrin promoter, or wild type baculovirus as a control. The cells were harvested by centrifugation at selected times after infection, washed with 100 mM Na^+MES (pH 6.0), and lysed using 1 ml per 30,000 cells of the same buffer containing 0.5% Triton X-100 with or without 80 mM EDTA.\n[…] of the lysates were used in each reaction of the α1,2-mannosidase activity assays. Cell lysates for negative control reactions were boiled for 3 min prior to being added to the reactions. All reactions were carried out in a total volume of […] containing 75 mM Na^+MES (pH 6.0), 0.0625% Triton X-100, and 6000 cpm of [^3H]MangGlcNAc. In addition, some reactions contained CaCl2, MgCl2, EDTA, or dMNJ. The reactions were incubated at 37° C. for 2.5 hours, boiled for 2 min, and 250 ml of a 5 mM solution of CaCl2, MgCl2, and MnCl2, and 175 ml of a 2.25 mg/ml solution of concanavalin A (Boehringer-Mannheim, Indianapolis, Ind.) in 3.8 M NaCl were added to each reaction. The solutions were vortexed gently and incubated at room temperature for two minutes, then 1 ml of 25% PEG-8000 was added and the solutions were vortexed and incubated for another 5 min at room temperature. The solutions were then centrifuged for 2 min at 10,000×g, 1 ml of the supernatant was added to 4 ml of a scintillation cocktail (Ultima Gold™; Packard Instrument Company, Meriden, Conn.), and radioactivity was measured using a Beckman liquid scintillation counter (Model LS 60001C; Beckman Instruments, Inc., Fullerton, Calif.)."}, "N-linked glycans on gp64": {"test_system": "N-linked glycans on gp64", "settings": "baculovirus-infected lepidopteran cells (Jarvis and Garcia, 1994); cited from earlier work"}, "Sf9 α-mannosidase II": {"molecular_target": "T2, Sf9 α-mannosidase II (Spodoptera frugiperda, UniProt O18497)", "T2 construct": "The assembled full-length open reading frame of the Sf9 α-mannosidase II cDNA; made in house; host or cells: Sf9 cells infected with recombinant baculovirus (pVL1392 transfer vector, polyhedrin promoter); Triton X-100 cell extract, not purified", "T2 sequence (O18497 1-1130)": "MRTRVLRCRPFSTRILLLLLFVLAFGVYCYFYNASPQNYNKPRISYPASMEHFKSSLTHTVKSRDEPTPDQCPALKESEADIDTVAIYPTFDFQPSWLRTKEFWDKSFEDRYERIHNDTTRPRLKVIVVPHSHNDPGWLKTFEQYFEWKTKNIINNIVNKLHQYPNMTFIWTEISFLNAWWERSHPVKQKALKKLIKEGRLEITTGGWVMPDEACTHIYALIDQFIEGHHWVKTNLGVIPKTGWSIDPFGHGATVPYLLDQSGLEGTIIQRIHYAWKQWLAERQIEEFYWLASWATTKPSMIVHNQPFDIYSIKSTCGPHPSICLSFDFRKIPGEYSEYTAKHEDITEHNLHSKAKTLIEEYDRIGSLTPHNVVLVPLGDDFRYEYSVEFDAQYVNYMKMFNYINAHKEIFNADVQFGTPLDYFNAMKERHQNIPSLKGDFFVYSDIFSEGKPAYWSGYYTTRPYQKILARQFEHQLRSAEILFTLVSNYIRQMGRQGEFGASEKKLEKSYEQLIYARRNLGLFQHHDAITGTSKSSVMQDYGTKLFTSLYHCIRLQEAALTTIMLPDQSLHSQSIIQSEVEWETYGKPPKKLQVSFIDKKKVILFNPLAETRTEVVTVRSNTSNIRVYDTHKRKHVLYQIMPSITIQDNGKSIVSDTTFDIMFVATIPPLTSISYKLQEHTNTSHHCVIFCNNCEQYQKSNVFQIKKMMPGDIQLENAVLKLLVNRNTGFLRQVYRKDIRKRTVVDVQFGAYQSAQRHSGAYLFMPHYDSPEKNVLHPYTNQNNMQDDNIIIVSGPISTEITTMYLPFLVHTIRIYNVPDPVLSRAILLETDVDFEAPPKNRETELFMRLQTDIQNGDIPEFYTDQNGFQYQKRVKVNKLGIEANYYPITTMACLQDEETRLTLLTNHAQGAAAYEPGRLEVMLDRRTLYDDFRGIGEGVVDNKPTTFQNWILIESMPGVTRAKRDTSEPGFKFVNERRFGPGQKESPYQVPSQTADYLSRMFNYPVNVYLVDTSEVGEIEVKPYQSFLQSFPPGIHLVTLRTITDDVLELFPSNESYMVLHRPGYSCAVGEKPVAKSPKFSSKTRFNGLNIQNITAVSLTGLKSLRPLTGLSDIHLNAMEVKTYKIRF", "experiment": "α-mannosidase activity assay with p-nitrophenyl α-D-mannopyranoside on extracts of recombinant baculovirus-infected Sf9 cells", "type": "biochemical", "settings": "various concentrations of swainsonine; extracts 24, 36, 48 h postinfection (FIG. 7B)", "method": "Sf9 cells were infected with wild-type or recombinant baculoviruses were harvested by centrifugation at various times after infection, and pellets containing 1×10^6 cells were resuspended in 100 μl of assay buffer (0.1 M MES, pH 6.3; 0.5% Triton-X-100). The cell suspensions were assayed for o-mannosidase activity by mixing 25 μl of the cell extracts with 25 μl of 10 mM p-nitrophenyl α-D-mannopyranoside in the presence or absence of various concentrations of swainsonine. The reaction mixtures were incubated in a microtiter plate for 1 hr at 37° C. with gentle agitation, then quenched by the addition of 200 μl of stop solution (133 mM glycine, 67 mM NaCl, 83 mM Na2CO3). Absorbance was measured at 410 nm on a plate reader (Dynatech Model MR 5000), corrected for light scattering at 570 nm, and the corrected absorbance values were converted to nmol p-nitrophenol using a standard curve produced on the same plate reader."}}, "data": [{"molecule": "O=C(O)CN(CCN(CC(=O)O)CC(=O)O)CC(=O)O", "note": "[EDTA]", "values": [{"measurement": "α-mannosidase activity in recombinant baculovirus-infected cells, inhibition by EDTA", "setting": "Sf9 α1,2-mannosidase; 10 mM EDTA, reversed by calcium, not magnesium", "result": "strongly inhibited"}]}, {"molecule": "OC[C@H]1NC[C@@H](O)[C@@H](O)[C@@H]1O", "note": "[dMNJ, 1-deoxymannojirimycin]", "values": [{"measurement": "processing of N-linked glycans on gp64", "setting": "N-linked glycans on gp64", "result": "block the processing"}, {"measurement": "α-mannosidase activity in recombinant baculovirus-infected cells, inhibition by dMNJ", "setting": "Sf9 α1,2-mannosidase", "result": "strongly inhibited"}, {"measurement": "α-mannosidase activity in recombinant baculovirus-infected cells, inhibition by dMNJ", "setting": "Sf9 α1,2-mannosidase; listed as 1-deoxymannojirimycin", "result": "inhibited"}]}, {"molecule": "O[C@H]1[C@H]2[C@H](O)CCCN2C[C@H]1O", "note": "[swainsonine]", "values": [{"measurement": "α-mannosidase activity in recombinant baculovirus-infected cell extracts in the presence of swainsonine", "setting": "Sf9 α-mannosidase II", "result": "sensitive"}]}]}
